Results on six compounds are retold here after ChEMBL document CHEMBL4033609, “Naphthablins B and C, Meroterpenoids Identified from the Marine Sediment-Derived Streptomyces sp. CP26-58 Using HeLa Cell-Based Cytological Profiling” (J Nat Prod, 2017).

The test system of assay [1] is HeLa. Put plainly: Growth inhibition of human HeLa cells at 33 uM. It is filed as functional. Particulars: read-out: GI.
Assay [2] has as its system HeLa. Put plainly: Cytotoxic activity against human HeLa cells at 1.25 to 10 uM by cytological profiling assay. It is filed as functional, cell-based.
For assay [3], the system named is HeLa. Put plainly: Cytotoxic activity against human HeLa cells. It is filed as functional, cell-based.
Assay [4] relates to HeLa. Put plainly: Cytotoxic activity against human HeLa cells at 1.91 uM by cytological profiling assay. It is filed as functional, cell-based.
Assay [5] has as its system HeLa. The experiment in a line: Cytotoxic activity against human HeLa cells at 0.382 uM by cytological profiling assay. It is filed as functional, cell-based.
In assay [6] the test system is HeLa. The experiment in a line: Cytotoxic activity against human HeLa cells at 1.47 uM by cytological profiling assay. It is filed as functional, cell-based.
In assay [7] the test system is HeLa. The experiment in a line: Cytotoxic activity against human HeLa cells at 0.295 uM by cytological profiling assay. It is filed as functional, cell-based.

As a reminder, the pIC50 is the IC50 on a negative log10 scale, so that one unit is a factor of ten.

pIC50: −log10 of the molar value. Activity calls are given as the source filed them. The rule behind the calls is not given here.

On to `C=CC(C)(CO)c1c(O)cc2c(c1O)C(=O)C1=C(C2=O)[C@@H]2C[C@@H](C)[C@@H](OC(=O)C(C)C)C[C@@H]2C(C)(C)O1` (some centres undefined), for which the inhibition of growth at 33 µM in assay [1] worked out at 19%.

For the compound `CO[C@@H](C)[C@H]1C[C@H](C)[C@H]([C@@H](C)/C=C/[C@@H]2CC[C@@H](C)[C@H](/C(=C/[C@H]3CCC[C@@H](C)[C@@H]3[C@H](C)C(=O)C3=C(O)COC3=O)CO)O2)O1` [TETRONASIN 5930], the outcome in assay [2] was Active. The compound further showed a pIC50 in assay [3] of 6.64.

As to `CNc1ccc2oc(C[C@H]3O[C@@]4(CC[C@H]3C)O[C@H]([C@H](C)C(=O)c3ccc[nH]3)[C@H](C)C[C@H]4C)nc2c1C(=O)O`, the result in assay [4] and in assay [5] was Active.

Take `C[C@H](CCC(=O)O)C[C@H](C)C[C@H](C)C(=O)/C=C(\O)[C@H](C)C[C@H](C)C/C=C/[C@@H](C)[C@@H](O)[C@@H](C)[C@@H](O)C[C@@H]1CC[C@@](C)([C@H]2CC[C@@](C)([C@@H](C)O)O2)O1`: the outcome in assay [6] and in assay [7] was Active.

On to `CCC(C)C(=O)O[C@H]1C[C@H]2[C@@H](C[C@H]1C)C1=C(OC2(C)C)C(=O)c2c(cc(O)c3c2O[C@@H]2[C@@H](O)OC[C@]32C)C1=O` (some centres undefined), for which the inhibition of growth at 33 µM in assay [1] is 25%.

`CC(C)C(=O)O[C@H]1C[C@H]2[C@@H](C[C@H]1C)C1=C(OC2(C)C)C(=O)c2c(cc(O)c3c2O[C@@H]2[C@@H](O)OC[C@]32C)C1=O`: the inhibition of growth at 33 µM in assay [1] stood at 32%.
